Experiment [1] relates to MCA branches (C57BL/6J). Description: EtOH-induced cerebrovascular constriction in vivo (cranial window). Details: species or system mouse. The conditions noted are these: 10 µM PROG + 50 mM EtOH infused. As for the experimental part:
Eight-12 week-old male and female C57BL/6J mice were anesthetized with a mixture of xylazine/ketamine (12/100 mg per kg) and kept anesthetized for the duration of the experiment with subsequent ketamine doses (50 mg/kg of weight) as needed. A catheter was inserted into the carotid artery so that the infusion went straight to the brain rather than towards the thoracic cavity. An area of the skull was cleared of tissue and thinned to expose the branching arteries originating from the MCA on the side the catheter was inserted, above the zygomatic arch, between the ear and eye of the skull[19],[34]. The exposed arteries branching out from the MCA were monitored using a Leica MC170 HD microscope with a mounted camera (Leica M125 C) connected to a computer monitor. Drugs were diluted to their final concentration in sodium saline (0.9% NaCl) and administered via catheter at 0.1 ml/25 g of weight. Cranial window images before and after drug administration were acquired every 60 seconds for subsequent analysis.

Experiment [2] addresses T1, cbv1+β1Y32V (Rattus norvegicus, UniProt P97678, Y32V).
T1 construct: made in house; host or cells: CHO cells, transient transfection; sucrose-gradient membrane preparation
Description: Channel activity (NPo) in POPE/POPS bilayers, cbv1+β1Y32V. Type of experiment: biochemical. Conditions: for normalized NPo, time course Fig 2E: Y32V PROG. From the text: (§1) BK channel-forming slo1 cDNA (cbv1 isoform; AY330293) was cloned from rat cerebral artery SM cells, and inserted into pcDNA3.1 vector as described. BK β1 cDNA (KCNMB1 product; NP_011452; FJ154955) were isolated from rat cerebral artery SM cells and cloned as described. β4 cDNA (KCNMB4; NP_055320; AY028605) were generously provided by Dr. Ligia Toro. CHO cells were transiently transfected with cbv1 ± β1-, or β4-carrying pcDNA3.1 using X-tremeGENE HP (Sigma-Aldrich). Mutations to β1/4 cDNAs were conducted by Genscript, with sequences being confirmed to be >99% identical to KCNMB1 product; NP_011452 or β4 KCNMB4; NP_055320; respectively. β1/4 and mutant constructs were flag-tagged (DYKDDDDK-tag) by Genscript services for subsequent immunoprecipitation and use in microscale thermophoresis studies.
Proteins for electrophysiological recordings in artificial lipid bilayers remained untagged. Cells were transiently transfected as described above, pelleted and re-suspended on ice in 10 ml of buffer solution of the following composition (mM): 30 KCl, 2 MgCl2, 10 HEPES, 5 EGTA; pH 7.2. A membrane preparation was obtained using a sucrose gradient as described. Aliquots were stored at −80 °C. BK channel-mediated ionic current was recorded in planar lipid bilayers consisting of a POPE:POPS 3:1 (w/w) mixture. Lipid mixtures were dried under N2 and re-suspended in 25 mg/ml of n-decane BK currents following incorporation into horizontal bilayers at 300/30 mM cis/trans gradient as detailed elsewhere. Ion currents were obtained during a 10-min gap-free recording at 0 mV in the presence of 0.01, 10 μM PROG, 10 μM PROG-oxime, or vehicle control (dimethyl sulfoxide; DMSO). Currents were obtained in gap-free mode using a Warner BC-525D amplifier, low pass-filtered at 1 kHz and sampled at 5 kHz with Digidata 1550B/pCLAMP 11 (Molecular Devices). For comparison with previous data from us[16],[17],[45]–[47], studies were conducted at 20–22 °C. PROG stock, oxime stock or vehicle control (DMSO) was added to the bilayer cis chamber to reach final concentrations (0.01–10 µM), with all compounds being dissolved with the same concentration of DMSO (0.1%); n = 5–10 for each group.
Patch-clamp and bilayer data were analyzed using Clampfit 10.7 software (Molecular Devices). NPo was used as an index of channel steady-state activity where N = number of channels in the patch (defined as a maximal number of opening levels at Po≤1) and Po=single channel open probability. Drug-induced NPo changes were determined by comparing baseline NPo (i.e., NPo with the patch/cell perfused with bath solution) to the NPo from the same patch/cell exposed to the agent under study (DMSO/PROG/oxime) dissolved in bath solution. NPo and mean open time values were automatically calculated using Clampfit 10.7, the latter using a 50% threshold detection event.

Experiment [3] concerns the target T2, cbv1+β1Y42V (Rattus norvegicus, UniProt P97678, Y42V).
T2 construct: made in house; host or cells: CHO cells, transient transfection; sucrose-gradient membrane preparation
Description: Channel activity (NPo) in POPE/POPS bilayers, cbv1+β1Y42V. In kind it is biochemical. From the text: (§2) BK channel-forming slo1 cDNA (cbv1 isoform; AY330293) was cloned from rat cerebral artery SM cells, and inserted into pcDNA3.1 vector as described. BK β1 cDNA (KCNMB1 product; NP_011452; FJ154955) were isolated from rat cerebral artery SM cells and cloned as described. β4 cDNA (KCNMB4; NP_055320; AY028605) were generously provided by Dr. Ligia Toro. CHO cells were transiently transfected with cbv1 ± β1-, or β4-carrying pcDNA3.1 using X-tremeGENE HP (Sigma-Aldrich). […]
(§3) Proteins for electrophysiological recordings in artificial lipid bilayers remained untagged. […] BK channel-mediated ionic current was recorded in planar lipid bilayers consisting of a POPE:POPS 3:1 (w/w) mixture. […]
(§4) Patch-clamp and bilayer data were analyzed using Clampfit 10.7 software (Molecular Devices). […] Drug-induced NPo changes were determined by comparing baseline NPo (i.e., NPo with the patch/cell perfused with bath solution) to the NPo from the same patch/cell exposed to the agent under study (DMSO/PROG/oxime) dissolved in bath solution. NPo and mean open time values were automatically calculated using Clampfit 10.7, the latter using a 50% threshold detection event.

Experiment [4] deals with T3, cbv1+β1Y32F (Rattus norvegicus, UniProt P97678, Y32F).
T3 construct: made in house; host or cells: CHO cells, transient transfection; sucrose-gradient membrane preparation
T3 sequence (P97678 whole entry Y32F): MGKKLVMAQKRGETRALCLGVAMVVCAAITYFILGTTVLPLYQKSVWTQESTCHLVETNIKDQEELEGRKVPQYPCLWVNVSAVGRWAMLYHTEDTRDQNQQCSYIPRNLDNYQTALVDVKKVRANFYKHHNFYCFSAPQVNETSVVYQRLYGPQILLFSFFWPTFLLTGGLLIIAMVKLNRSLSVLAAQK
T3 sequence (Q62976 1-1148 isoform Q62976-2 partner): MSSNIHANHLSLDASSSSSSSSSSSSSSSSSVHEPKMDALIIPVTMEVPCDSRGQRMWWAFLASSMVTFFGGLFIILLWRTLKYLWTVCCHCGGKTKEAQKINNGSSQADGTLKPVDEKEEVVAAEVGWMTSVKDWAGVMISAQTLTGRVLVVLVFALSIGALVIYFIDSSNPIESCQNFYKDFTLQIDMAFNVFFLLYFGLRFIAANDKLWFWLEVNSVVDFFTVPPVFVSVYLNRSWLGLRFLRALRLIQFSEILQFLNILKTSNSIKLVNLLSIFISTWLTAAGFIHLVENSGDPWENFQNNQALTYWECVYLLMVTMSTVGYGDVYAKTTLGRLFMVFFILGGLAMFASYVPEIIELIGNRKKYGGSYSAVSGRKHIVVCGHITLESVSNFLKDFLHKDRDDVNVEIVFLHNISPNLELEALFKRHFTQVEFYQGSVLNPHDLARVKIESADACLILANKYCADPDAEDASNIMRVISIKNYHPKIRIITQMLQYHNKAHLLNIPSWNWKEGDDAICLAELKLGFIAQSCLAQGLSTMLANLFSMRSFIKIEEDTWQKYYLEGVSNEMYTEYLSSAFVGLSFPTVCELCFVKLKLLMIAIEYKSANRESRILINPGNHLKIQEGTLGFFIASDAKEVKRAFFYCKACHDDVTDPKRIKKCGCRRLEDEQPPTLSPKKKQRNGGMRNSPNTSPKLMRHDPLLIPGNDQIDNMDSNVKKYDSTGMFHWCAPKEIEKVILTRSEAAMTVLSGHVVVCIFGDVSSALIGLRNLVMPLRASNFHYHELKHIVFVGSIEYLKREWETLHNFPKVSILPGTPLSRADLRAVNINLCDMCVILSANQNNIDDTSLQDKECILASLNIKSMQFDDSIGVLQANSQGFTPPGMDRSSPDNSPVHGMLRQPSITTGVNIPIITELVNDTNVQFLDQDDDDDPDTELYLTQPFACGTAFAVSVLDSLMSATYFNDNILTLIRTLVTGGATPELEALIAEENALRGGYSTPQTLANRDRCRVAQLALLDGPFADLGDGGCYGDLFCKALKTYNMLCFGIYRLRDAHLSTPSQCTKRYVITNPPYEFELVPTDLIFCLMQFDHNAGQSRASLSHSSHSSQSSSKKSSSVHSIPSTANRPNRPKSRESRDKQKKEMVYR
Description: Channel activity (NPo) in POPE/POPS bilayers, cbv1+β1Y32F. Type of experiment: biochemical.
From the text: as §2, §3, §4

For experiment [5], the target named is T4, β1Y32F (Rattus norvegicus, UniProt P97678, Y32F).
T4 construct: FLAG (DYKDDDDK); made in house; host or cells: CHO cells, transient transfection, anti-flag immunoprecipitation
T4 sequence (P97678 whole entry Y32F): as the sequence (P97678 whole entry Y32F) above
Briefly: Thermal unfolding (MST) of β1Y32F. In kind it is binding.
From the text: as §1
Wt β1, wt β4 and mutant constructs were purified by immunoprecipitation using Dynabeads Protein G Kit (10007D by Invitrogen) and following the manufacturer’s instructions. […] The unfolding profile of a protein is a plot of its fluorescence signal against temperature. […] During the heating process, fluorescence is recorded at 330 and 350 nm. The resulting fluorescence ratio change is then analyzed for onset and inflection points. The temperature of onset and inflection is determined using built-in analysis function in Nanotemper PR.therm-control software. […]

Values joined by “and” are separate entries in the source; they are usually repeats but may differ in a detail not shown here. Identical values can stand only once.

T2 sequence (P97678 whole entry Y42V): as the sequence (P97678 whole entry Y32F) above, with F32Y, Y42V counted along it
T2 sequence (Q62976 1-1148 isoform Q62976-2 partner): as the sequence (Q62976 1-1148 isoform Q62976-2 partner) above
T1 sequence (P97678 whole entry Y32V): as the sequence (P97678 whole entry Y32F) above, with F32V counted along it
T1 sequence (Q62976 1-1148 isoform Q62976-2 partner): as the sequence (Q62976 1-1148 isoform Q62976-2 partner) above

For the compound `CC(=O)[C@H]1CC[C@H]2[C@@H]3CCC4=CC(=O)CC[C@]4(C)[C@H]3CC[C@]12C` [PROG, Progesterone], in experiment [1], the “effect on EtOH-induced cerebrovascular constriction” value was “still protected against EtOH-induced cerebrovascular constriction”. Also, the “action on channel activity (NPo)” value in experiment [2] (10 µM, vs DMSO) is recorded as “effectively abolished PROG action”; in experiment [3] (10 µM, vs DMSO), “significantly activated”; in experiment [4] (10 µM, vs DMSO), “significantly activated”. The “normalized NPo, time course Fig 2E” value is 1 in experiment [2] (time 1 min (normalisation reference)); 1.125 and 0.8919 and 0.9083 and 0.945 and 0.929 in experiment [2] (time 3 min); 0.9853 and 0.9339 and 0.8202 and 0.8981 and 0.6799 in experiment [2] (time 5 min); 1.106 and 1.228 and 1.117 and 1.276 and 0.8487 in experiment [2] (time 6 min); 1.144 and 0.9028 and 1.206 and 0.9453 in experiment [2] (time 7 min); 0.6757 and 1.202 and 0.918 and 1.1397 in experiment [2] (time 8 min). Moreover, the “normalized NPo, time course Fig 2E” value in experiment [2] (time 9 min) was 0.5676 and 0.9266 and 0.822 and 1.088; in experiment [2] (time 10 min), 0.7195 and 0.8661 and 0.9555 and 1.102. Further, the “channel activity (NPo) with prog, normalized” value is 1.4717 and 1.041 and 1.9292 and 1.306 and 1.182 in experiment [3] (SFig3A, cbv1+y42v, individual bilayers); 3.7931 and 1.379 and 2.626 and 0.9886 and 1.589 in experiment [4] (SFig3A, cbv1+y32f, individual bilayers). Moreover, the binding result in experiment [5] is on record as “still bind PROG”.

For the origin of these results see PMC10636063, “Progesterone activation of β1-containing BK channels involves two binding sites” (Nature Communications, 2023).
